Laboratory results from ChEMBL document CHEMBL5260848, “Recent advancements in the development of bioactive pyrazoline derivatives” (Eur J Med Chem, 2020).
≈ marks a conversion by molar mass, not a printed value.

Legend:
Aspergillus niger [1] = test: Antifungal activity against Aspergillus niger incubated for 24 hrs by disc diffusion method; assay type: functional
[2] = system: Mycobacterium tuberculosis; assay type: functional; conditions: time 5 day
Bacillus subtilis [3] = test: microbe, parasite or virus in culture; conditions: 24 h
[4] = system: Mycobacterium tuberculosis; assay type: functional; conditions: time 5 day; remark: listed apart in the source
[5] = system: Mycobacterium tuberculosis; test: microbe, parasite or virus in culture; conditions: 120 h
Escherichia coli [6] = test: Antibacterial activity against Escherichia coli incubated for 24 hrs by disc diffusion method; assay type: functional
Aspergillus fumigatus [7] = test: Antifungal activity against Aspergillus fumigatus incubated for 24 hrs by disc diffusion method; assay type: functional
[8] = system: Mycobacterium tuberculosis; assay type: functional; conditions: time 5 day; remark: listed apart in the source
Pseudomonas aeruginosa [9] = test: microbe, parasite or virus in culture; conditions: 24 h
Staphylococcus aureus [10] = test: microbe, parasite or virus in culture; conditions: 24 h
Candida albicans [11] = test: microbe, parasite or virus in culture; conditions: 24 h
Aspergillus flavus [12] = test: Antifungal activity against Aspergillus flavus incubated for 24 hrs by disc diffusion method; assay type: functional
Plasmodium falciparum [13] = test: In vivo antimalarial activity against Plasmodium berghei K173 infected in mouse assessed as chemo-supression percentage at 100 mg/kg, ip by giemsa staining based microscopic analysis relative to control; assay type: functional
Hemozoin = test: Inhibition of Beta-hematin in Plasmodium berghei
Plasmodium falciparum [14] = test: In vivo antimalarial activity against Plasmodium berghei K173 infected in mouse assessed as reduction in parasitemia at 50 mg/kg, ip measured after 6 days by giemsa staining based microscopic analysis relative to control; assay type: functional; parameters: scale not given: the % may be the effect or the level left; conditions: time 6 day
Plasmodium falciparum [15] = test: In vivo antimalarial activity against Plasmodium berghei K173 infected in mouse assessed as chemo-supression percentage at 50 mg/kg, ip by giemsa staining based microscopic analysis relative to control; assay type: functional
Plasmodium falciparum [16] = test: In vivo antimalarial activity against Plasmodium berghei K173 infected in mouse assessed as reduction in parasitemia at 100 mg/kg, ip measured after 6 days by giemsa staining based microscopic analysis relative to control; assay type: functional; parameters: scale not given: the % may be the effect or the level left; conditions: time 6 day
Plasmodium falciparum [17] = test: Antimalarial activity against chloroquine-sensitive Plasmodium falciparum NF54 measured after 72 hrs by giemsa staining based analysis; assay type: functional, organism-based; conditions: NF54, 72 h
Mus musculus [18] = species on record: Mus musculus; test: Antidepressant activity in Swiss albino mouse assessed as decrease in immobility time by forced swimming test; assay type: functional
Mus musculus [19] = species on record: Mus musculus; test: Antidepressant activity in Swiss albino mouse assessed as decrease in duration of immobility by tail suspension test relative to control; assay type: functional; parameters: scale not given: the % may be the effect or the level left
Mus musculus [20] = species on record: Mus musculus; test: Antidepressant activity in Swiss albino mouse assessed as decrease in immobility time by tail suspension test; assay type: functional
Mus musculus [21] = test: Antidepressant activity in Swiss albino mouse assessed as decrease in duration of immobility at 100 mg/kg, po by forced swimming test relative to control; assay type: functional; parameters: scale not given: the % may be the effect or the level left
Bacillus subtilis [22] = test: Antimicrobial activity against Bacillus subtilis; assay type: functional
Staphylococcus aureus [23] = test: Antimicrobial activity against Staphylococcus aureus assessed as inhibition of bacterial growth; assay type: functional
Candida albicans [24] = test: Antifungal activity against Candida albicans assessed as fungal growth inhibition; assay type: functional
Aspergillus fumigatus [25] = test: Antifungal activity against Aspergillus fumigatus; assay type: functional
Escherichia coli [26] = test: Antimicrobial activity against Escherichia coli assessed as inhibition of bacterial growth; assay type: functional
Proteus vulgaris [27] = test: Antimicrobial activity against Proteus vulgaris assessed as inhibition of bacterial growth; assay type: functional
Candida albicans [28] = test: Antifungal activity against Candida albicans assessed as zone of inhibition; assay type: functional
Aspergillus fumigatus [29] = test: Antifungal activity against Aspergillus fumigatus assessed as zone of inhibition; assay type: functional
Staphylococcus aureus [30] = test: Antibacterial activity against Staphylococcus aureus by agar dilution method; assay type: functional
Escherichia coli [31] = test: Potency index, ratio of ampicillin MIC to compound MIC for Escherichia coli by agar dilution method; assay type: functional
Aspergillus niger [32] = test: Antifungal activity against Aspergillus niger by agar dilution method; assay type: functional
[33] = Antioxidant activity assessed as DPPH radical scavenging activity; assay type: functional
Candida albicans [34] = test: Antifungal activity against Candida albicans by agar dilution method; assay type: functional
Bacillus subtilis [35] = test: Potency index, ratio of ampicillin MIC to compound MIC for Bacillus subtilis by agar dilution method; assay type: functional
Pseudomonas aeruginosa [36] = test: Antibacterial activity against Pseudomonas aeruginosa by agar dilution method; assay type: functional
Escherichia coli [37] = test: Antibacterial activity against Escherichia coli by agar dilution method; assay type: functional
Staphylococcus aureus [38] = test: Potency index, ratio of ampicillin MIC to compound MIC for Staphylococcus aureus by agar dilution method; assay type: functional
Bacillus subtilis [39] = test: Antibacterial activity against Bacillus subtilis by agar dilution method; assay type: functional
Escherichia coli [40] = test: microbe, parasite or virus in culture
Klebsiella pneumoniae [41] = test: Antimicrobial activity against Klebsiella pneumoniae; assay type: functional
Staphylococcus aureus [42] = test: microbe, parasite or virus in culture
MCF7 [43] = test: Cytotoxicity against human MCF7 cells; assay type: functional, cell-based
MCF7 [44] = test: Antitumor activity in human MCF7 cells xenografted in mouse model assessed as tumor volume measured after 12 days relative to control; assay type: functional; conditions: time 12 day
Bacillus subtilis [45] = test: microbe, parasite or virus in culture
Staphylococcus aureus [46] = test: microbe, parasite or virus in culture; remark: listed apart in the source
[47] = Inhibition of Bacillus subtilis DNA gyrase
ASPC1 = test: Cytotoxicity against human ASPC1 cells; assay type: functional, cell-based
Jurkat = test: Cytotoxicity against human Jurkat T cells; assay type: functional, cell-based
[48] = Cytotoxicity against human PBMC cells; assay type: functional, cell-based
Mus musculus [49] = test: Anticonvulsant activity in BALB/c mouse assessed as increase in survival rate at 60 mg/kg, ip by PTZ method relative to control; assay type: functional
Aspergillus niger [50] = test: Antifungal activity against Aspergillus niger MTCC 281 by plate dilution method relative to control; assay type: functional
Bacillus cereus = test: Antibacterial activity against Bacillus cereus ATCC 9946 by plate dilution method; assay type: functional
Pseudomonas aeruginosa [51] = test: Antibacterial activity against Pseudomonas aeruginosa ATCC 27853 by plate dilution method; assay type: functional
Monascus purpureus = test: Antifungal activity against Monascus purpureus MTCC 369 by plate dilution method relative to control; assay type: functional
Staphylococcus aureus [52] = test: Antibacterial activity against Staphylococcus aureus ATCC 25923 by plate dilution method; assay type: functional
Penicillium citrinum = test: Antifungal activity against Penicillium citrinum NCIM 768 by plate dilution method relative to control; assay type: functional
Proteus vulgaris [53] = test: Antibacterial activity against Proteus vulgaris ATCC 9920 by plate dilution method; assay type: functional
Bacillus subtilis [54] = test: Antibacterial activity against Bacillus subtilis ATCC 6633 by plate dilution method; assay type: functional
Aspergillus flavus [55] = test: Antifungal activity against Aspergillus flavus MTCC 277 by plate dilution method relative to control; assay type: functional
[56] = system: Bordetella bronchiseptica; test: Antibacterial activity against Bordetella bronchiseptica ATCC 4617 by plate dilution method; assay type: functional
Escherichia coli [57] = test: Antibacterial activity against Escherichia coli ATCC 25922 by plate dilution method; assay type: functional
[58] = system: Staphylococcus epidermidis; test: Antibacterial activity against Staphylococcus epidermidis ATCC 12228 by plate dilution method; assay type: functional
Klebsiella pneumoniae [59] = test: Antibacterial activity against Klebsiella pneumoniae ATCC 700603 by plate dilution method; assay type: functional
Candida albicans [60] = test: Antifungal activity against Candida albicans ATCC 2091 by plate dilution method relative to control; assay type: functional
Enterococcus faecalis = test: Antibacterial activity against Enterococcus faecalis ATCC 29212 by plate dilution method; assay type: functional

O=C(NNS(=O)(=O)c1ccccc1)N1N=C(c2ccccc2)CC1c1ccccc1 (stereo unspecified)
MIC (Aspergillus niger [1]): 25 µg/mL (≈ 59.5 µM)
Ratio [2]: 7.81
MIC (Bacillus subtilis [3]): 25 µg/mL (≈ 59.5 µM)
Ratio [4]: 3.9
MIC [5]: 0.8 µg/mL (≈ 1.9 µM)
MIC (Escherichia coli [6]): 25 µg/mL (≈ 59.5 µM)
MIC (Aspergillus fumigatus [7]): 25 µg/mL (≈ 59.5 µM)
Ratio [8]: 3.9
MIC (Pseudomonas aeruginosa [9]): 25 µg/mL (≈ 59.5 µM)
MIC (Staphylococcus aureus [10]): 25 µg/mL (≈ 59.5 µM)
MIC (Candida albicans [11]): 25 µg/mL (≈ 59.5 µM)
MIC (Aspergillus flavus [12]): 25 µg/mL (≈ 59.5 µM)

COc1cc(C)c(C2C=C(c3cc(OC)c(OC)c(OC)c3)N(C(=O)OC(C)C)N2C(=O)OC(C)C)cc1C(C)C (stereo unspecified)
Activity (Plasmodium falciparum [13]): 55.6%
IC50 (Hemozoin): 38.8 µM
Activity (Plasmodium falciparum [14]): 8.03%
Activity (Plasmodium falciparum [15]): 25.29%
Activity (Plasmodium falciparum [16]): 4.62%
IC50 (Plasmodium falciparum [17]): < 2 µM

COc1cc(C2CC(c3ccc(-c4cc(F)cc(F)c4)nc3C)=NN2)cc(OC)c1OC (stereo unspecified)
Time (Mus musculus [18]): 66.67 s
Activity (Mus musculus [19]): 64.56%
Time (Mus musculus [20]): 70.33 s
Activity (Mus musculus [21]): 66.58%

Clc1ccc(C2CC(c3cccs3)=NN2c2nc(-c3ccccc3)cs2)c(Cl)c1 (stereo unspecified)
MIC (Bacillus subtilis [22]): 9.77 µg/mL (≈ 21.4 µM)
MIC (Staphylococcus aureus [23]): 9.77 µg/mL (≈ 21.4 µM)
MIC (Candida albicans [24]): 62.5 µg/mL (≈ 137 µM)
MIC (Aspergillus fumigatus [25]): 312 µg/mL (≈ 685 µM)
MIC (Escherichia coli [26]): 9.77 µg/mL (≈ 21.4 µM)
MIC (Proteus vulgaris [27]): 9.77 µg/mL (≈ 21.4 µM)
inhibition zone (IZ) (Candida albicans [28]): 23 mm
inhibition zone (IZ) (Aspergillus fumigatus [29]): 28 mm

COc1cccc2cc(/C=C/C(=O)c3cc(Br)ccc3O)c3nnnn3c12
MIC (Staphylococcus aureus [30]): 50 µg/mL (≈ 118 µM)
Ratio (Escherichia coli [31]): 2
MIC (Aspergillus niger [32]): 25 µg/mL (≈ 58.8 µM)
IC50 [33]: 22.4 µg/mL (≈ 52.7 µM)
MIC (Candida albicans [34]): 25 µg/mL (≈ 58.8 µM)
Ratio (Bacillus subtilis [35]): 5
MIC (Pseudomonas aeruginosa [36]): 25 µg/mL (≈ 58.8 µM)
MIC (Escherichia coli [37]): 50 µg/mL (≈ 118 µM)
Ratio (Staphylococcus aureus [38]): 5
MIC (Bacillus subtilis [39]): 50 µg/mL (≈ 118 µM)

CCOC(=O)C1N=NN(CC(=O)N2N=C(c3ccccc3)CC2c2cccs2)C1C(=O)OCC (stereo unspecified)
MIC (Escherichia coli [40]): 3.9 µg/mL (≈ 8.07 µM)
MIC (Klebsiella pneumoniae [41]): 15 µg/mL (≈ 31 µM)
MIC (Staphylococcus aureus [42]): 3.9 µg/mL (≈ 8.07 µM)

COc1ccc2c(c1)cc(C1CC(c3cc(Br)ccc3O)=NN1)c1nnnn12 (stereo unspecified)
MIC (Staphylococcus aureus [30]): 50 µg/mL (≈ 114 µM)
Ratio (Escherichia coli [31]): 2
IC50 [33]: 21 µg/mL (≈ 47.8 µM)
MIC (Candida albicans [34]): 25 µg/mL (≈ 56.9 µM)
MIC (Pseudomonas aeruginosa [36]): 25 µg/mL (≈ 56.9 µM)
MIC (Escherichia coli [37]): 50 µg/mL (≈ 114 µM)
Ratio (Staphylococcus aureus [38]): 10
MIC (Bacillus subtilis [39]): 25 µg/mL (≈ 56.9 µM)

CC(=O)Oc1ccc2c(c1)CC[C@@H]1[C@@H]2CC[C@]2(C)C3=NN(c4ccccc4)C(c4cccs4)C3C[C@@H]12 (stereo partly specified)
IC50 (MCF7 [43]): 0.043 µM
Activity (MCF7 [44]): 87%

CC(=O)N1N=C(c2ccc(C)cc2)CC1c1cc(Cl)ccc1Oc1c([N+](=O)[O-])cc(C(F)(F)F)cc1[N+](=O)[O-] (stereo unspecified)
MIC (Bacillus subtilis [45]): 0.39 µg/mL (≈ 0.693 µM)
MIC (Staphylococcus aureus [46]): 0.39 µg/mL (≈ 0.693 µM)
IC50 [47]: 0.125 µg/mL (≈ 0.222 µM)

Cc1ccc(-c2nnc(SCC(=O)N3N=C(c4cccs4)CC3c3ccc(Cl)cc3)o2)cc1 (stereo unspecified)
IC50 (ASPC1): 16.8 µM
IC50 (Jurkat): 90 µM
IC50 [48]: 1000 µM

O=C(Nc1ccc(Cl)cc1)N1N=C(c2ccc(Br)s2)CC1c1c(Cl)cccc1Cl (stereo unspecified)
survival at 60 mg/kg (Mus musculus [49]): 95%

O=c1oc2ccc(F)cc2cc1-c1csc(N2N=C(c3ccc(F)cc3)CC2c2cc3ccccc3nc2Cl)n1 (stereo unspecified)
Activity (Aspergillus niger [50]): 83.59%
MIC (Bacillus cereus): 50 µg/mL (≈ 87.6 µM)
MIC (Pseudomonas aeruginosa [51]): 50 µg/mL (≈ 87.6 µM)
Activity (Monascus purpureus): 79.72%
MIC (Staphylococcus aureus [52]): 50 µg/mL (≈ 87.6 µM)
Activity (Penicillium citrinum): 91.42%
MIC (Proteus vulgaris [53]): 50 µg/mL (≈ 87.6 µM)
MIC (Bacillus subtilis [54]): 50 µg/mL (≈ 87.6 µM)
Activity (Aspergillus flavus [55]): 98%
MIC [56]: 50 µg/mL (≈ 87.6 µM)
MIC (Escherichia coli [57]): 50 µg/mL (≈ 87.6 µM)
MIC [58]: 50 µg/mL (≈ 87.6 µM)
MIC (Klebsiella pneumoniae [59]): 50 µg/mL (≈ 87.6 µM)
Activity (Candida albicans [60]): 98.95%
MIC (Enterococcus faecalis): 50 µg/mL (≈ 87.6 µM)

O=C(Nc1ccc(Cl)cc1)N1N=C(c2ccc(Cl)s2)CC1c1c(Cl)cccc1Cl (stereo unspecified)
survival at 60 mg/kg (Mus musculus [49]): 100%
